From ChEMBL document CHEMBL5120815, “Synthesis of novel dual target inhibitors of PARP and EGFR and their antitumor activities in triple negative breast cancers” (Bioorg Med Chem, 2022)
pIC50: −log10 of the molar value. The source made the active and inactive calls. The rule behind the calls is not given here.

Legend:
MCF7 [1] = assay: Cytotoxicity against human MCF7 cells harbouring wild type BRCA1/2 assessed as inhibition of cell growth at 25 uM incubated for 48 hrs by MTT assay relative to control; assay type: functional
HCC1937 = assay: Cytotoxicity against human HCC1937 cells assessed as inhibition of cell growth incubated for 48 hrs by MTT assay; assay type: functional, cell-based; details: HCC1937, 48 h
MCF7 [2] = assay: Potentiation of adriamycin-induced cytotoxicity in human MCF7 cells harbouring wild type BRCA1/2 assessed as inhibition of cell growth at 25 uM incubated for 48 hrs in presence of 0.8 uM adriamycin by MTT assay relative to control; assay type: functional
MDA-MB-231 = assay: Cytotoxicity against human MDA-MB-231 cells assessed as inhibition of cell growth incubated for 48 hrs by MTT assay; assay type: functional, cell-based; details: MDA-MB-231, 48 h
MCF7 [3] = assay: Synergistic cytotoxicity against human MCF7 cells harbouring wild type BRCA1/2 assessed as combination index at 25 uM incubated for 48 hrs in presence of 0.8 uM adriamycin by MTT assay; assay type: functional
MDA-MB-468 = assay: Cytotoxicity against human MDA-MB-468 cells assessed as inhibition of cell growth incubated for 48 hrs by MTT assay; assay type: functional, cell-based; details: MDA-MB-468, 48 h
MCF7 [4] = assay: Cytotoxicity against human MCF7 cells harbouring wild type BRCA1/2 assessed as inhibition of cell growth incubated for 48 hrs by MTT assay; assay type: functional, cell-based; details: MCF7, 48 h
MX1 = assay: Cytotoxicity against human MX1 cells harbouring BRCA1 mutant assessed as inhibition of cell growth incubated for 48 hrs by MTT assay; assay type: functional, cell-based; details: MX1, 48 h
SK-BR-3 = assay: Cytotoxicity against human SK-BR-3 cells harbouring wild type BRCA1/2 assessed as inhibition of cell growth incubated for 48 hrs by MTT assay; assay type: functional, cell-based; details: SK-BR-3, 48 h
MCF7 [5] = assay: Synergistic cytotoxicity against human MCF7 cells harbouring wild type BRCA1/2 assessed as combination index at 10 uM incubated for 48 hrs in presence of 0.8 uM adriamycin by MTT assay; assay type: functional
MCF7 [6] = assay: Potentiation of adriamycin-induced cytotoxicity in human MCF7 cells harbouring wild type BRCA1/2 assessed as inhibition of cell growth at 10 uM incubated for 48 hrs in presence of 0.8 uM adriamycin by MTT assay relative to control; assay type: functional
MCF7 [7] = assay: Cytotoxicity against human MCF7 cells harbouring wild type BRCA1/2 assessed as inhibition of cell growth at 10 uM incubated for 48 hrs by MTT assay relative to control; assay type: functional
MCF7 [8] = assay: Cytotoxicity against human MCF7 cells harbouring wild type BRCA1/2 assessed as inhibition of cell growth at 17.5 uM incubated for 48 hrs by MTT assay relative to control; assay type: functional
MCF7 [9] = assay: Potentiation of adriamycin-induced cytotoxicity in human MCF7 cells harbouring wild type BRCA1/2 assessed as inhibition of cell growth at 17.5 uM incubated for 48 hrs in presence of 0.8 uM adriamycin by MTT assay relative to control; assay type: functional
MCF7 [10] = assay: Synergistic cytotoxicity against human MCF7 cells harbouring wild type BRCA1/2 assessed as combination index at 17.5 uM incubated for 48 hrs in presence of 0.8 uM adriamycin by MTT assay; assay type: functional
[11] = target: Epidermal growth factor receptor (Homo sapiens) (UniProt P00533); assay: Inhibition of human EGFR in human HCC1937 cells assessed as reduction in EGFR level at 10 uM incubated for 48 hrs by Western blot analysis; assay type: cell-based
Chain of Epidermal growth factor receptor (Homo sapiens) (P00533 whole entry): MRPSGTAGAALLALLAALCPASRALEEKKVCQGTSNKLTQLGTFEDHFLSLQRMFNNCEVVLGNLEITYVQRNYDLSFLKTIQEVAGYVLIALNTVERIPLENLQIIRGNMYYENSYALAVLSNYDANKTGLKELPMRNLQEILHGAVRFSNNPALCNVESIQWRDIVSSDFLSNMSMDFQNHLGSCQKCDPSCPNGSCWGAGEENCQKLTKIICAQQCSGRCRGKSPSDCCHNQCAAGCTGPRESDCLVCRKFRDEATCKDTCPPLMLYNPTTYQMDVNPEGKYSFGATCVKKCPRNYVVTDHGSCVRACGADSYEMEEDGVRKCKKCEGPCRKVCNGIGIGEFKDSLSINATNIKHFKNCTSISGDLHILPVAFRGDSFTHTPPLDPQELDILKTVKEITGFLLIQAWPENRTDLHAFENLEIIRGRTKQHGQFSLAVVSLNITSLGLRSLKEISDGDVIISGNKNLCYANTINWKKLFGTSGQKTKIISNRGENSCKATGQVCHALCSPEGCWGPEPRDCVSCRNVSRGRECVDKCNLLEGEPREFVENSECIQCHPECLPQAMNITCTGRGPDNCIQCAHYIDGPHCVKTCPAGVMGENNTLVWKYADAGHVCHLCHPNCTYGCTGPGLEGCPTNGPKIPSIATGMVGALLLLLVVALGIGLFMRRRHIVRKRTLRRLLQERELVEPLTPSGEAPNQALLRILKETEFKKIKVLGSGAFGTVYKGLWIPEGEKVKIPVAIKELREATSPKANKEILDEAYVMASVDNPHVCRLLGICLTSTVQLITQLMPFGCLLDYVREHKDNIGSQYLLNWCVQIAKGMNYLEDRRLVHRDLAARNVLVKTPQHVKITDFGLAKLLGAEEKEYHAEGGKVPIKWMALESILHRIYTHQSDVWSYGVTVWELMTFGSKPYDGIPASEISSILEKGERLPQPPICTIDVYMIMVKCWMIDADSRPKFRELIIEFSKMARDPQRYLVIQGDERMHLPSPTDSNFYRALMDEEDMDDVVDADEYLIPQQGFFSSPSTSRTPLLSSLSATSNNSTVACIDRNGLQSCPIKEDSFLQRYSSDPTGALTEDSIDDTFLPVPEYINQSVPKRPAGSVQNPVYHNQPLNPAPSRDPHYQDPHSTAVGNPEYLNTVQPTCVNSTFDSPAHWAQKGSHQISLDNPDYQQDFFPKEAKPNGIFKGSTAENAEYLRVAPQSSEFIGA

[12] = target: Poly [ADP-ribose] polymerase 1 (Homo sapiens) (UniProt P09874); assay: Inhibition of PARP-1 in human MCF7 cells assessed as inhibition of PARylation by measuring reduction in PARP protein expression at 1 uM pretreated with adriamycin followed by compound addition and measured after 48 hrs by Western bot analysis; assay type: cell-based
Chain of Poly [ADP-ribose] polymerase 1 (Homo sapiens) (P09874 whole entry): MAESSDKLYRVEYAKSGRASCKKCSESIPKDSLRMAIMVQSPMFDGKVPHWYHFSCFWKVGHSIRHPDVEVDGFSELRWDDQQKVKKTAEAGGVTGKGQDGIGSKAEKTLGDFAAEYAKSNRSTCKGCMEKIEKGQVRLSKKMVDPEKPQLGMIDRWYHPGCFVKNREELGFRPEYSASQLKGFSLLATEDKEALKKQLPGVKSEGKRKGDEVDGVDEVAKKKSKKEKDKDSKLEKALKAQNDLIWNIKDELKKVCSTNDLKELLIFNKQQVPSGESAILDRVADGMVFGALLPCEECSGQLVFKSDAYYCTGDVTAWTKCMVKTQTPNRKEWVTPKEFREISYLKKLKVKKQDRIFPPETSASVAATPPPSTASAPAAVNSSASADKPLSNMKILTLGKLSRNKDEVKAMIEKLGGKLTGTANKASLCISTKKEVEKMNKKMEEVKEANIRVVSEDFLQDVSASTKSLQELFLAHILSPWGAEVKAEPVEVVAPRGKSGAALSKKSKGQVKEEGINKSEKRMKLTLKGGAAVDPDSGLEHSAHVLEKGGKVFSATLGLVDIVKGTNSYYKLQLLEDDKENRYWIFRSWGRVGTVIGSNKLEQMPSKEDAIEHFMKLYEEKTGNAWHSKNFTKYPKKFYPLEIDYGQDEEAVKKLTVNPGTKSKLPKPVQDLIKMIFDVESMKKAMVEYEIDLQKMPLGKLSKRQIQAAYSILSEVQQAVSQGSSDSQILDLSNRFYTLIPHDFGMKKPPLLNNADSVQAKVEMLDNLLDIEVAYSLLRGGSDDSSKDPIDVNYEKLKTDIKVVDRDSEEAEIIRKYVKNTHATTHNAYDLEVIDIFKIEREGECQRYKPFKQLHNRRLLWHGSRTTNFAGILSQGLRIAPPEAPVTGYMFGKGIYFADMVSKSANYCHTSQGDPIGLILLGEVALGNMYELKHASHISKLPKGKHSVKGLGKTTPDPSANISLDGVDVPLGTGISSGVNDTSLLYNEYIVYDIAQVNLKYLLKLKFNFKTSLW

[13] = target: Epidermal growth factor receptor (Homo sapiens) (UniProt P00533); assay: Inhibition of human EGFR in human HCC1937 cells assessed as reduction in phosphorylated EGFR level at 10 uM incubated for 48 hrs by Western blot analysis; assay type: cell-based
[14] = target: Poly [ADP-ribose] polymerase 1 (Homo sapiens) (UniProt P09874); assay: Inhibition of PARP-1 (unknown origin) at 0.1 uM preincubated for 10 mins followed by PARP cocktail addition and measured after 60 mins by colorimetric assay relative to control; details: time 70.0 min

| SMILES | inhibition at 25 µM (MCF7 [1]) [%] | pIC50 (HCC1937) | inhibition at 25 µM (MCF7 [2]) [%] | pIC50 (MDA-MB-231) | CI (MCF7 [3]) | pIC50 (MDA-MB-468) | pIC50 (MCF7 [4]) | pIC50 (MX1) | pIC50 (SK-BR-3) | CI (MCF7 [5]) | inhibition at 10 µM (MCF7 [6]) [%] | inhibition at 10 µM (MCF7 [7]) [%] | inhibition at 17.5 µM (MCF7 [8]) [%] | inhibition at 17.5 µM (MCF7 [9]) [%] | CI (MCF7 [10]) | inhibition [11] | inhibition [12] | inhibition [13] | inhibition [14] [%] |
| --- | --- | --- | --- | --- | --- | --- | --- | --- | --- | --- | --- | --- | --- | --- | --- | --- | --- | --- | --- |
| O=C(c1cc(Cc2n[nH]c(=O)c3ccccc23)ccc1F)N1CCN(C(=O)C2CC2)CC1 [OLAPARIB] | 23.5 | < 3.70 | 27.9 | < 3.70 | 0.88 | 3.70 | 3.39 | – | – | – | – | – | – | – | – | – | – | – | – |
| CN1CCN(c2ncc3c(n2)CCN(C(=O)c2cc(Cc4n[nH]c(=O)c5ccccc45)ccc2F)C3)CC1 | 37.4 | 4.27 | 55.8 | < 3.70 | 0.67 | – | 4.14 | 4.33 | 4.02 | – | – | – | – | – | – | – | – | – | – |
| CCCCN(CCCC)c1ncc2c(n1)CCN(C(=O)c1cc(Cc3n[nH]c(=O)c4ccccc34)ccc1F)C2 | 27.4 | < 3.70 | 39.6 | < 3.70 | 0.79 | – | 3.97 | 4.88 | 4.67 | – | – | – | – | – | – | – | – | – | – |
| CCN(CC)c1ncc2c(n1)CCN(C(=O)c1cc(Cc3n[nH]c(=O)c4ccccc34)ccc1F)C2 | – | 4.18 | – | < 3.70 | – | – | 4.25 | 4.55 | < 3.70 | 0.82 | 37.5 | 21.6 | – | – | – | – | – | – | – |
| CCCN(CCC)c1ncc2c(n1)CCN(C(=O)c1cc(Cc3n[nH]c(=O)c4ccccc34)ccc1F)C2 | 11.9 | 4.69 | 36.6 | < 3.70 | 0.36 | – | 3.90 | 4.03 | < 3.70 | – | – | – | – | – | – | – | – | – | – |
| O=C(c1cc(Cc2n[nH]c(=O)c3ccccc23)ccc1F)N1CCc2nc(N3CCCCC3)ncc2C1 | – | < 3.70 | – | < 3.70 | – | – | 4.05 | 4.64 | 4.61 | – | – | – | 18.9 | 43 | 0.44 | – | – | – | – |
| CCN1CCN(c2ncc3c(n2)CCN(C(=O)c2cc(Cc4n[nH]c(=O)c5ccccc45)ccc2F)C3)CC1 | 9.13 | 3.86 | 45.7 | < 3.70 | 0.2 | – | 4.05 | 4.05 | < 3.70 | – | – | – | – | – | – | – | – | – | – |
| O=C(c1cc(Cc2n[nH]c(=O)c3ccccc23)ccc1F)N1CCc2nc(N3CCCC3)ncc2C1 | 24.9 | 5.11 | 40.9 | < 3.70 | 0.61 | – | 3.84 | 4.11 | < 3.70 | – | – | – | – | – | – | – | – | – | – |
| CN(C)CCN(C)c1ncc2c(n1)CCN(C(=O)c1cc(Cc3n[nH]c(=O)c4ccccc34)ccc1F)C2 | 24.6 | < 3.70 | 43.9 | < 3.70 | 0.86 | – | 3.91 | 4.17 | < 3.70 | – | – | – | – | – | – | – | – | – | – |
| O=C(c1cc(Cc2n[nH]c(=O)c3ccccc23)ccc1F)N1CCc2nc(N3CCOCC3)ncc2C1 | 18.6 | 5.49 | 47.8 | < 3.70 | 0.39 | 4.81 | 3.70 | 4.73 | 4.30 | – | – | – | – | – | – | Active | Active | Active | 92.1 |
